# In US12714107B2, “Dioxazolines and their use as herbicides” (BASF SE, priority 2020, dated 2026):
# Legend:
# ECHCG [1] = assay: greenhouse herbicidal activity, post-emergence method; assay type: in vivo, Echinocloa crus-galli; conditions: scale 0 to 100
# Text: (§1) The culture containers used were plastic flowerpots containing loamy sand with approximately 3.0% of humus as the substrate. The seeds of the test plants were sown separately for each species.
# (§2) For the pre-emergence treatment, the active ingredients, which had been suspended or emulsified in water, were applied directly after sowing by means of finely distributing nozzles. The containers were irrigated gently to promote germination and growth and subsequently covered with transparent plastic hoods until the test plants had rooted. This cover caused uniform germination of the test plants, unless this had been impaired by the active ingredients. For the post-emergence treatment, the test plants were first grown to a height of 3 to 15 cm, depending on the plant habit, and only then treated with the active ingredients which had been suspended or emulsified in water. For this purpose, the test plants were either sown directly and grown in the same containers, or they were first grown separately as seedlings and transplanted into the test containers a few days prior to treatment.
# (§3) Depending on the species, the test plants were kept at 10-25° C. or 20-35° C., respectively. The test period extended over 2 to 4 weeks. During this time, the test plants were tended, and their response to the individual treatments was evaluated.
# (§4) Evaluation was carried out using a scale from 0 to 100. […]
# APESV = assay: greenhouse herbicidal activity, pre-emergence method; assay type: in vivo, Apera spica-venti; conditions: application rate 0,500 kg/ha, scale 0 to 100
# Text: as §1, §2, §3, §4
# AVEFA = assay: greenhouse herbicidal activity, post-emergence method; assay type: in vivo, Avena fatua; conditions: scale 0 to 100
# Text: as §1, §2, §3, §4
# AMARE [2] = assay: greenhouse herbicidal activity, pre-emergence method; assay type: in vivo, Amaranthus retroflexus; conditions: scale 0 to 100
# Text: as §1, §2, §3
# Evaluation was carried out using a scale from 0 to 100. 100 means no emergence of the test plants, or complete destruction of at least the aerial moieties, and 0 means no damage, or normal course of growth. A good herbicidal activity is given at values of 80 to 90 and a very good herbicidal activity is given at values of 90 to 100.
# The test plants used in the greenhouse experiments were of the following species: […]
# ALOMY = assay: greenhouse herbicidal activity, post-emergence method; assay type: in vivo, Alopercurus myosuroides; conditions: application rate 0,500 kg/ha, scale 0 to 100
# Text: as §1, §2, §3, §4
# SETVI = assay: as above; assay type: in vivo, Setaria viridis; conditions: application rate 0,500 kg/ha, scale 0 to 100
# Text: as §1, §2, §3, §4
# ECHCG [3] = assay: greenhouse herbicidal activity, pre-emergence method; assay type: in vivo, Echinocloa crus-galli; conditions: scale 0 to 100
# Text: as §1, §2, §3, §4
# SETFA = assay: as above; assay type: in vivo, Setaria faberi; conditions: application rate 1,000 kg/ha, scale 0 to 100
# Text: as §1, §2, §3, §4
# AMARE [4] = assay: greenhouse herbicidal activity, post-emergence method; assay type: in vivo, Amaranthus retroflexus; conditions: application rate 1,000 kg/ha, scale 0 to 100
# Text: as §1, §2, §3, §4
structure (smiles),measurement,setting,value
COC(=O)CC(C)NC(=O)C1(C)ON=C(c2cc(Cl)cc(Cl)c2)O1 (centres unmarked) [compound 11],herbicidal activity against ECHCG,"ECHCG [1]; application rate 0,500 kg/ha",very good (a very good herbicidal activity is given at values of 90 to 100)
COC(=O)CCCNC(=O)C1(C)ON=C(c2cc(Cl)cc(Cl)c2)O1 (centres unmarked) [compound 12],herbicidal activity against APESV,APESV,good (A good herbicidal activity is given at values of 80 to 90)
same,herbicidal activity against AVEFA,"AVEFA; application rate 0,500 kg/ha",good (A good herbicidal activity is given at values of 80 to 90)
"COC(=O)C[C@H](C)NC(=O)C1(C(F)(F)F)ON=C(c2cc(Cl)cc(Cl)c2)O1 (stereo partly drawn) [compound 13, methyl (3S)-3-[[3-(3,5-dichlorophenyl)-5-(trifluoromethyl)-1,4,2-dioxazole-5-carbonyl]amino]butanoate]",herbicidal activity against AMARE,"AMARE [2]; application rate 0,500 kg/ha",very good (a very good herbicidal activity is given at values of 90 to 100)
same,herbicidal activity against ALOMY,ALOMY,good (A good herbicidal activity is given at values of 80 to 90)
COC(=O)C1CC(NC(=O)C2(C)ON=C(c3cc(F)cc(F)c3)O2)C1 (centres unmarked) [compound 16],herbicidal activity against SETVI,SETVI,very good (a very good herbicidal activity is given at values of 90 to 100)
CC(CC(=O)O)NC(=O)C1(C)ON=C(c2cc(Cl)cc(Cl)c2)O1 (centres unmarked) [compound 17],herbicidal activity against ECHCG,"ECHCG [3]; application rate 1,000 kg/ha",good (A good herbicidal activity is given at values of 80 to 90)
same,herbicidal activity against SETFA,SETFA,very good (a very good herbicidal activity is given at values of 90 to 100)
COC(=O)C1C=CC(NC(=O)C2(C)ON=C(c3cc(F)cc(F)c3)O2)C1 (centres unmarked) [compound 18],herbicidal activity against AMARE,"AMARE [2]; application rate 1,000 kg/ha",very good (a very good herbicidal activity is given at values of 90 to 100)
COC(=O)C1C=CC(NC(=O)C2(C(F)(F)F)ON=C(c3cc(Cl)cc(Cl)c3)O2)C1 (centres unmarked) [compound 19],herbicidal activity against AVEFA,"AVEFA; application rate 0,250 kg/ha",very good (a very good herbicidal activity is given at values of 90 to 100)
C=CC1(C(=O)NC(C)CC(=O)OC)ON=C(c2cc(Cl)cc(Cl)c2)O1 (centres unmarked) [compound 110],herbicidal activity against AMARE,"AMARE [2]; application rate 1,000 kg/ha",good (A good herbicidal activity is given at values of 80 to 90)
same,herbicidal activity against AMARE,AMARE [4],good (A good herbicidal activity is given at values of 80 to 90)
C=CC1(C(=O)NC2C=CC(C(=O)OC)C2)ON=C(c2cc(Cl)cc(Cl)c2)O1 (centres unmarked) [compound 111],herbicidal activity against ECHCG,"ECHCG [3]; application rate 0,250 kg/ha",very good (a very good herbicidal activity is given at values of 90 to 100)
same,herbicidal activity against ECHCG,"ECHCG [1]; application rate 0,250 kg/ha",very good (a very good herbicidal activity is given at values of 90 to 100)
